pIC50: −log10 of the molar value.
Key:
[1] = test system: HT-29; assay: Antiproliferative activity against human HT-29 cells assessed as inhibition of cell proliferation measured after 48 hrs by SRB assay; format: functional, cell-based; settings: HT-29, 48 h
[2] = test system: HT-1080; assay: Antiproliferative activity against human HT-1080 cells assessed as inhibition of cell proliferation measured after 48 hrs by SRB assay; format: functional, cell-based; settings: HT-1080, 48 h
[3] = test system: M21; assay: Antiproliferative activity against human M21 cells assessed as inhibition of cell proliferation measured after 48 hrs by SRB assay; format: functional, cell-based; settings: M21, 48 h
[4] = test system: HaCaT; assay: Antiproliferative activity against human HaCaT cells assessed as inhibition of cell proliferation measured after 48 hrs by SRB assay; format: cell-based

Row | Compound | pIC50 [1] | pIC50 [2] | pIC50 [3] | pIC50 [4]
1 | COc1cc([C@@H]2c3cc4c(cc3[C@@H](N=[N+]=[N-])[C@H]3COC(=O)[C@H]23)OCO4)cc(OC)c1O | 6.22 | 6.22 | 6.22 | 6.30
2 | COc1cc([C@@H]2c3cc4c(cc3[C@@H](n3cc(CNC(=O)[C@@H]5O[C@H](OC)[C@H](O)[C@@H](O)[C@@H]5O)nn3)[C@H]3COC(=O)[C@H]23)OCO4)cc(OC)c1O | < 4.00 | < 4.00 | < 4.00 | < 4.00
3 | COc1cc([C@@H]2c3cc4c(cc3[C@@H](n3cc(CNC(=O)[C@@H]5O[C@H](OC)[C@H](N)[C@@H](O)[C@@H]5O)nn3)[C@H]3COC(=O)[C@H]23)OCO4)cc(OC)c1O | < 4.00 | < 4.00 | < 4.00 | < 4.00
4 | COc1cc([C@@H]2c3cc4c(cc3[C@@H](n3cc(CNC(=O)[C@H]5O[C@H](OC)[C@H](NC(=O)OC(C)(C)C)[C@@H](O)[C@@H]5O)nn3)[C@H]3COC(=O)[C@H]23)OCO4)cc(OC)c1O | < 6.00 | < 6.00 | < 6.00 | < 6.00
5 | COc1cc([C@@H]2c3cc4c(cc3[C@@H](n3cc(CNC(=O)[C@@H]5O[C@H](OC)[C@H](NC(C)=O)[C@@H](O)[C@@H]5O)nn3)[C@H]3COC(=O)[C@H]23)OCO4)cc(OC)c1O | < 4.00 | < 4.00 | < 4.00 | < 4.00
6 | COc1cc([C@@H]2c3cc4c(cc3[C@@H](O)[C@H]3COC(=O)[C@H]23)OCO4)cc(OC)c1O [4'-DEMETHYLEPIPODOPHYLLOTOXIN] | 6.82 | 6.96 | 6.77 | 6.80
7 | COc1ccc(/C=C\c2cc(OC)c(OC)c(OC)c2)cc1O [COMBRETASTATIN A4] | < 6.00 | 8.59 | 8.72 | 8.47
8 | COc1cc([C@@H]2c3cc4c(cc3[C@@H](O[C@@H]3O[C@@H]5CO[C@@H](C)O[C@H]5[C@H](O)[C@H]3O)[C@H]3COC(=O)[C@H]23)OCO4)cc(OC)c1O [ETOPOSIDE] | 5.05 | 5.70 | 6.70 | 5.22

From ChEMBL document CHEMBL5032537, “Synthetic development of sugar amino acid oligomers towards novel podophyllotoxin analogues” (Bioorg Med Chem, 2021)
